The conditions of data set [1]: three weeks of garlic caplet supplementation; cited from earlier work.
For data set [2] the following is noted: human, in vivo.
Data set [3] can be described thus: clinical. As to conditions: human, in vivo.
The conditions of data set [4]: human, in vivo. The source holds these as a separate data set.
In data set [5] the test system is CYP3A. It is filed as in vivo, human (healthy volunteers). The settings on record: for Cl/F / AUC(0-inf): geometric mean (90% CI); for AUC(0-inf): AUC0-∞, midazolam 8 mg single oral dose.
Data set [6] concerns intestinal and hepatic CYP3A. As to conditions: cited from earlier work.
[7] abbreviates: Post-Echinacea/Pre-Echinacea, GMR (90% CI).
Setting [8] is: Post-Echinacea/Pre-Echinacea, GMR (90% CI), listed as Midazolam.
Where [9] appears, read: midazolam 8 mg oral, 28 days of echinacea, P > 0.05.

Structures are written as SMILES. Where two headings read alike, the source gives them in different places. Marks after values point to notes of the source that are not given here.

For the compound `CC(C)(C)NC(=O)[C@@H]1C[C@@H]2CCCC[C@@H]2CN1C[C@@H](O)[C@H](Cc1ccccc1)NC(=O)[C@H](CC(N)=O)NC(=O)c1ccc2ccccc2n1` [saquinavir], the “Decrease in AUC of saquinavir” value in data set [1] is 51%.
Turning to `Cc1cccc(C)c1OCC(=O)N[C@@H](Cc1ccccc1)[C@@H](O)C[C@H](Cc1ccccc1)NC(=O)[C@H](C(C)C)N1CCCNC1=O` [lopinavir], in data set [2], the “T ½” value is given as 9.5 (7.4–11.6) hr. The Tmax in data set [3] and in data set [4] was 2 h throughout.
On to `Cc1ncc2n1-c1ccc(Cl)cc1C(c1ccccc1F)=NC2` [midazolam], for which the Cl/F is 77 (55–98) mL/hr in data set [5] (Post-Echinacea (28 days), midazolam 8 mg oral) and 56 (46–66) mL/hr in data set [5] (Pre-Echinacea, midazolam 8 mg oral). Besides, the Tmax was 0.5 (0.5–1.5) ^c hr in data set [5] (Post-Echinacea (28 days), midazolam 8 mg oral, median (range)) and 0.5 h in data set [5] (human, plasma, po, 8 mg). For the same compound, the “AUC0-∞ geometric mean ratio” value is reported as 0.73 (0.61, 0.85) in data set [5] (setting [7]) and 0.73 (0.61–0.85) in data set [5] (setting [8]). Besides, the “Cl/F geometric mean ratio” value in data set [5] (setting [7]) is on record as 1.37 (1.10, 1.63); in data set [5] (setting [8]), 1.37 (1.10–1.63). Also, in data set [5] (setting [7]), the “Cmax geometric mean ratio” value is listed as 0.77 (0.58–0.96). Also, the “T ½ geometric mean ratio” value in data set [5] (setting [7]) is 0.55 (0.40, 0.70); in data set [5] (setting [8]) it was 0.55 (0.40–0.70). Moreover, the “Change in midazolam exposure after E purpurea” value in data set [5] (after 28 days of E purpurea, P = 0.008) was −27%. Besides, in data set [5] (after 28 days of E purpurea, P = 0.02), the “Increase in midazolam apparent oral clearance after E purpurea” value is on record as 37%. The “Reduction of midazolam half-life after E purpurea” value in data set [5] (after 28 days of E purpurea, P = 0.051) turned out to be 45%. The AUC(0-inf) was found to be 104 ng·h/mL in data set [5] (human, plasma, po, 8 mg, Post-Echinacea (28 days, 500 mg three times daily)) and 143 ng·h/mL in data set [5] (human, plasma, po, 8 mg, Pre-Echinacea). The “Change of Cmax after echinacea administration” value in data set [5] (setting [9]) is recorded as “unchanged”. For the same compound, in data set [5] (setting [9]), the “Change of Tmax after echinacea administration” value is “unchanged”. Also, the “Increase in intestinal availability of midazolam” value in data set [6] (after E purpurea 1600 mg total daily dose for 8 days) is on record as 85%. The “Increase in oral availability of midazolam” value in data set [6] (after echinacea 400 mg 4 times daily for 8 days, P = 0.028) was ~43%.
Turning to `CC(C)c1nc(CN(C)C(=O)N[C@H](C(=O)N[C@@H](Cc2ccccc2)C[C@H](O)[C@H](Cc2ccccc2)NC(=O)OCc2cncs2)C(C)C)cs1` [ritonavir], in data set [2], the “T ½” value is listed as 5.34 (4.46–6.22) hr and the Tmax is 1.8 (0–4.0) ^c hr.

The values are drawn from PMC3407958 (Pharmacotherapy, 2010).
